Reference: a compilation of properties of binary mixtures (doi:10.1007/s10953-016-0518-2)

Assay: xn = mol fraction of the nth substance listed
Conditions: 101 kPa

## OCCO + CC[n+]1ccn(C)c1.F[B-](F)(F)F
303.15 K, x2 = 0
  viscosity: 13.8 mPa·s
313.15 K, x2 = 0
  viscosity: 9.62 mPa·s
323.15 K, x2 = 0
  viscosity: 6.92 mPa·s

## CC[n+]1ccn(C)c1.F[B-](F)(F)F + OCCO
303.15 K, x1 = 0.0993
  viscosity: 10.5 mPa·s
303.15 K, x1 = 0.2001
  viscosity: 9.63 mPa·s
303.15 K, x1 = 0.3023
  viscosity: 9.5 mPa·s
303.15 K, x1 = 0.5003
  viscosity: 10.6 mPa·s
303.15 K, x1 = 0.598
  viscosity: 11.9 mPa·s
303.15 K, x1 = 0.7003
  viscosity: 14 mPa·s
303.15 K, x1 = 0.7997
  viscosity: 16.9 mPa·s
303.15 K, x1 = 0.8997
  viscosity: 21.4 mPa·s
303.15 K, x1 = 1
  viscosity: 28 mPa·s
313.15 K, x1 = 0.0993
  viscosity: 7.54 mPa·s
313.15 K, x1 = 0.2001
  viscosity: 6.96 mPa·s
313.15 K, x1 = 0.3023
  viscosity: 6.97 mPa·s
313.15 K, x1 = 0.5003
  viscosity: 7.91 mPa·s
313.15 K, x1 = 0.598
  viscosity: 8.98 mPa·s
313.15 K, x1 = 0.7003
  viscosity: 10.5 mPa·s
313.15 K, x1 = 0.7997
  viscosity: 12.7 mPa·s
313.15 K, x1 = 0.8997
  viscosity: 15.9 mPa·s
313.15 K, x1 = 1
  viscosity: 20.4 mPa·s
323.15 K, x1 = 0.0993
  viscosity: 5.57 mPa·s
323.15 K, x1 = 0.2001
  viscosity: 5.22 mPa·s
323.15 K, x1 = 0.3023
  viscosity: 5.3 mPa·s
323.15 K, x1 = 0.4011
  viscosity: 5.63 mPa·s
323.15 K, x1 = 0.5003
  viscosity: 6.21 mPa·s
323.15 K, x1 = 0.598
  viscosity: 7.05 mPa·s
323.15 K, x1 = 0.7003
  viscosity: 8.29 mPa·s
323.15 K, x1 = 0.7997
  viscosity: 9.9 mPa·s
323.15 K, x1 = 0.8997
  viscosity: 12.3 mPa·s
323.15 K, x1 = 1
  viscosity: 15.3 mPa·s
333.15 K, x1 = 0.3023
  viscosity: 4.2 mPa·s
333.15 K, x1 = 0.4011
  viscosity: 4.51 mPa·s
333.15 K, x1 = 0.5003
  viscosity: 5.02 mPa·s
333.15 K, x1 = 0.598
  viscosity: 5.7 mPa·s
333.15 K, x1 = 0.7003
  viscosity: 6.7 mPa·s
333.15 K, x1 = 0.7997
  viscosity: 8.07 mPa·s
333.15 K, x1 = 0.8997
  viscosity: 9.7 mPa·s
333.15 K, x1 = 1
  viscosity: 12.1 mPa·s
